From patent US8691982B2, “Pyrazolo[1,5-a]-1,3,5-triazine derivatives, preparation thereof, and therapeutic use thereof” (Centre National de la Recherche Scientifique, priority 2009, dated 2014)
Structures can show the parent of a compound that is named as a salt.

Tests used:
CDK9/cyclin T = molecular target: T1, CDK9/cyclin T (Homo sapiens, UniProt P50750); experiment: CDK9/cyclin T kinase assay; format: biochemical; settings: 15 μM ATP, 30° C., pRB fragment substrate
T1 construct: host or cells: insect cells
T1 sequence (P50750 whole entry, the tested form may be a part): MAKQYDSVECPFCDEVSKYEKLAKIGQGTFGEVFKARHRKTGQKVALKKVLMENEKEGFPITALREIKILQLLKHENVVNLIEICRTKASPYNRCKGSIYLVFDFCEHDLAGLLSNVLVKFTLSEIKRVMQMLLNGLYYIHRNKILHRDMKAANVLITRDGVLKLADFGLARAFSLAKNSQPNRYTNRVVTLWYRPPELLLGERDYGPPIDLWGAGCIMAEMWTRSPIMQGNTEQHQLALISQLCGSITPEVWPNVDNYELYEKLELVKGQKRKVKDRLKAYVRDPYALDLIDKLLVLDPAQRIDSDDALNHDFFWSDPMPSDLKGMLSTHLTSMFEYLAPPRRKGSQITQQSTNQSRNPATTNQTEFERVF
T1 sequence (O60563 whole entry partner, the tested form may be a part): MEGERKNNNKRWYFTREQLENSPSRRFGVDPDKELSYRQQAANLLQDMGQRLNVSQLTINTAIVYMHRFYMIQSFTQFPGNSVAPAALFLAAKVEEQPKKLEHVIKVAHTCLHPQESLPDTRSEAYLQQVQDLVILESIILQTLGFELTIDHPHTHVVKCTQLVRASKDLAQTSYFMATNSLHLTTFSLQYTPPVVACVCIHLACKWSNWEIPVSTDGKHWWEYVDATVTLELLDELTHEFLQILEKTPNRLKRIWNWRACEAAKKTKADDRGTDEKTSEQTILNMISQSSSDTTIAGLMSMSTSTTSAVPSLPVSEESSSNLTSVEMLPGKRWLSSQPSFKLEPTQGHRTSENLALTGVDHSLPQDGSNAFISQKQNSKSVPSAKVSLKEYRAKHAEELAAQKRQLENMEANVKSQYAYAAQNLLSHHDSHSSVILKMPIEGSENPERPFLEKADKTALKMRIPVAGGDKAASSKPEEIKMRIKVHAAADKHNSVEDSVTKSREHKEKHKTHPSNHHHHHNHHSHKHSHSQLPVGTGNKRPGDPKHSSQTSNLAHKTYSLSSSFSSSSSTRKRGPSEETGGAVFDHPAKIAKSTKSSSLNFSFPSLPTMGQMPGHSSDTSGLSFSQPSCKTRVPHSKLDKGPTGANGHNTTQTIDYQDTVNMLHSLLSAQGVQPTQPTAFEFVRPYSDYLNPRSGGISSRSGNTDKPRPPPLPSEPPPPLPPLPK

CDK1/cyclin B = CDK1/cyclin B kinase assay; format: biochemical, starfish (Marthasterias glacialis); settings: 15 μM ATP, 30° C., histone H1 substrate
Protocol: Homogenization buffers: 60 mM β-glycerophosphate, 15 mM p-nitrophenyl phosphate, 25 mM Mops (pH 7.2), 15 mM EGTA, 15 mM MgCl2, 1 mM DTT, 1 mM sodium vanadate, 1 mM NaF, 1 mM phenyl phosphate, 10 μg leupeptin/ml, 10 μg aprotinin/ml, 10 μg soybean trypsin inhibitor/ml and 100 μM benzamidine.
(§1) Buffer C: 60 mM β-glycerophosphate, 15 mM p-nitrophenyl phosphate, 25 mM Mops (pH 7.2), 5 mM EGTA, 15 mM MgCl2, 1 mM DTT, 1 mM sodium vanadate, 1 mM phenyl phosphate, 10 μg leupeptin/ml, 10 μg aprotinin/ml and 100 μM benzamidine.
(§2) Controls were performed with appropriate dilutions of dimethyl sulfoxide.
(§3) ATP (3000 Ci/mmol; 10 mCi/ml) in a final volume of 30 μl. After incubation for 30 minutes at 30° C., aliquotes of 25 μl of the supernatant were spotted onto Whatman P81 phosphocellulose paper filters and, 20 seconds later, the filters were washed five times (for at least five minutes each time) in a solution of 10 ml of phosphoric acid/liter of water. The wet filters were subjected to counting in the presence of an ACS scintillation fluid from Amersham. CDK2/cyclin A (human, recombinant, expressed in insect cells) was assayed as described for CDK1/cyclin B. CDK5/p25 was reconstituted by mixing equal amounts of recombinant mammalian CDK5 and p25 expressed in E. coli as a GST (glutathione-S-transferase) fusion protein and purified by affinity chromatography on glutathione-agarose (p25 is a truncated version of p35, the 35 kDa CDK5 activator). […] DYRK1A (human, recombinant, expressed in E. coli as a GST fusion protein) was purified on glutathione-agarose, assayed as described for CDK1/cyclin B with myelin basic protein (1 mg/ml) as substrate.

GSK-3α/β = GSK-3α/β kinase assay; format: biochemical, pig; settings: 15 μM ATP, 30° C., buffer A, GS-1 substrate
CDK5/p25 = CDK5/p25 (Homo sapiens, UniProt Q00535); experiment: CDK5/p25 kinase assay; format: biochemical, mammalian; settings: 15 μM ATP, 30° C., histone H1 substrate
CDK5/p25, sequence (Q00535 whole entry, species assumed): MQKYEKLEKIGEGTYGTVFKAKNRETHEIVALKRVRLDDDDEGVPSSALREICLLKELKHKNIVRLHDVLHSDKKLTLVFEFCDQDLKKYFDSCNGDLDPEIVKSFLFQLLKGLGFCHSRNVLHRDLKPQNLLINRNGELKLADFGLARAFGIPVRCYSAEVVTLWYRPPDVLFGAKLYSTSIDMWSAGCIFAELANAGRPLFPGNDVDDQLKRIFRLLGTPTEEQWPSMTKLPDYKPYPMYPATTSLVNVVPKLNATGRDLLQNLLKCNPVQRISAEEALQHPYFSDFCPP
CDK5/p25, sequence (Q15078 99-307 partner limits assumed, species assumed): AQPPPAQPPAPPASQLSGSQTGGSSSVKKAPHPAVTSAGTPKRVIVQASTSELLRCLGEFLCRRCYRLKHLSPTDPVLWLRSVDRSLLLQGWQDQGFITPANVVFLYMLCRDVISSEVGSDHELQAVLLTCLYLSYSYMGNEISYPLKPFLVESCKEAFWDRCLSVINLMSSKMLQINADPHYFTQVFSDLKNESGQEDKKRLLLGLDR
Protocol: as §1, §2, §3

CK1δ/ε = CK1δ/ε kinase assay; format: biochemical, pig; settings: 15 μM ATP, 30° C., CK1-specific peptide substrate
Protocol: (§4) The blank values were subtracted and the activities calculated as μmoles of phosphate incorporated per 10 minutes of incubation. […] Controls were performed with appropriate dilutions of dimethyl sulfoxide.
as §3

[1] = system: Human chronic lymphoid leukemia (B-CLL) lymphocytes; experiment: B-CLL cell apoptosis (annexin V / propidium iodide, flow cytometry); format: cell-based; settings: B-CLL cells from patients
Protocol: The CLL cells were isolated from heparinized blood of untreated patients after informed consent.
The mononuclear cells were isolated by centrifugation on a Lymphosep density gradient (Biowest). […] When the percentage of CD19+/CD5+ cells was less than 90%, the B lymphocytes were enriched using the kit II for B-cell enrichment by immunomagnetic depletion of the monocytes, NK cells, granulocytes and T lymphocytes (Miltenyi Biotech).
After incubation, the B-CLL cells were harvested, washed in PBS and resuspended in 100 μl of 1× binding buffer containing FITC-conjugated annexin V and propidium iodide (Beckman Coulter Apoptosis Detection Kit). After incubation for 10 min on ice, the cells were analyzed by flow cytometry and the percentage of cells undergoing apoptosis was determined.

DYRK1A = DYRK1A (Homo sapiens, UniProt Q13627); experiment: DYRK1A kinase assay; format: biochemical; settings: 15 μM ATP, 30° C., myelin basic protein substrate
Protocol: as §4, §3

CDK2/cyclin A = molecular target: T2, CDK2/cyclin A (Homo sapiens, UniProt P24941); experiment: CDK2/cyclin A kinase assay; format: biochemical; settings: 15 μM ATP, 30° C., histone H1 substrate
T2 construct: host or cells: insect cells
Protocol: as §1, §2, §3

[2] = system: SH-SY5Y human neuroblastoma cells; experiment: SH-SY5Y cell viability (MTS reduction); format: cell-based; settings: SH-SY5Y cell line, cell viability by MTS
Protocol: A Cell Titer 96® kit containing the MTS reagent was purchased from Promega (Madison, Wis., USA). The protease inhibitor cocktail came from Roche and the fetal calf serum (FCS) came from Invitrogen. The reagents not listed came from Sigma, unless otherwise indicated.
The SH-SY5Y human neuroblastoma cell line was grown in a DMEM medium with L-glutamine from Invitrogen (Cergy Pontoise, France), antibiotics and 10% by volume of FCS from Invitrogen. The general culture conditions were a 5% CO2 atmosphere and a temperature of 37° C. The culture plates and other disposable plastic tools were supplied by Corning (Corning, N.Y., USA). The treatments with the compounds of the invention were carried out on cultures in exponential growth over time, and indicated concentrations. The control experiments were carried out also using suitable dilutions of DMSO.
The cell viability was determined by measuring the reduction of 3-(4,5-dimethylthiazol-2-yl)-5-(3-carboxymethoxyphenyl)-2-(4-sulfophenyl)-2H-tetrazolium (MTS).

the four kinases assayed = experiment: Tests on the four kinases assayed (comparison of enantiomers 34 and 31); format: biochemical; settings: 34 versus 31
Protocol: The kinases were assayed in buffer A or buffer C, at 30° C., at a final ATP concentration of 15 μM. The blank values were subtracted and the activities calculated as μmoles of phosphate incorporated per 10 minutes of incubation. The activities are usually expressed as % (percentage) of maximum activity, i.e. in the absence of inhibitors. Controls were performed with appropriate dilutions of dimethyl sulfoxide.
[…]. J. Biochem. 1997, 243, 527-536. The kinase activity was assayed in buffer C, with 1 mg of histone H1/ml, in the presence of 15 μM of [γ-^33P] ATP (3000 Ci/mmol; 10 mCi/ml) in a final volume of 30 μl. After incubation for 30 minutes at 30° C., aliquotes of 25 μl of the supernatant were spotted onto Whatman P81 phosphocellulose paper filters and, 20 seconds later, the filters were washed five times (for at least five minutes each time) in a solution of 10 ml of phosphoric acid/liter of water. The wet filters were subjected to counting in the presence of an ACS scintillation fluid from Amersham. […]

CC[C@H](CO)Nc1nc(NCc2ccc(-c3ccccn3)cc2)n2ncc(C(C)C)c2n1 [Compound 3, Fumarate salt of (R)-2-(1-hydroxybut-2-ylamino)-8-isopropyl-4-[4-(pyridin-2-yl)benzylamino]pyrazolo[1,5-a]-1,3,5-triazine] showed an IC50 (CDK9/cyclin T) of 31 nM, an IC50 (CDK1/cyclin B) of 16 nM and an IC50 (GSK-3α/β) of 3100 nM. For the same compound, the IC50 (CDK5/p25) was 18 nM, the IC50 (CK1δ/ε) was 130 nM and the IC50 [1] was 32 nM. It also gave an IC50 (DYRK1A) of 2200 nM, an IC50 (CDK2/cyclin A) of 21 nM and an IC50 [2] of 59 nM.

In the case of CC[C@H](CO)Nc1nc(NCc2ccc(-c3ccccn3)cc2)n2ncc(C(C)C)c2n1 [Compound 2, (R)-2-(1-hydroxybut-2-ylamino)-8-isopropyl-4-[4-(pyridin-2-yl)benzylamino]pyrazolo[1,5-a]-1,3,5-triazine], the IC50 (CDK9/cyclin T) is reported as 73 nM, the IC50 (CDK1/cyclin B) is reported as 23 nM and the IC50 (GSK-3α/β) is reported as 4000 nM. For the same compound, the IC50 (CDK5/p25) was 40 nM, the IC50 (CK1δ/ε) was 210 nM and the IC50 ([1]; Homo sapiens) was 32 nM. The IC50 (DYRK1A) was 1800 nM, the IC50 (CDK2/cyclin A) was 28 nM and the IC50 ([2]; Homo sapiens) was 44 nM.

CCc1cnn2c(NCc3ccc(-c4ccccn4)cc3)nc(NC[C@H](O)CO)nc12 [Compound 34, (S)-2-(1,2-dihydroxypropan-3-ylamino)-8-ethyl-4-[4-(pyridin-2-yl)benzylamino]pyrazolo[1,5-a]-1,3,5-triazine] gave an IC50 (GSK-3α/β) of 530 nM, an IC50 (CDK5/p25) of 10 nM and an IC50 (CK1δ/ε) of 100 nM. The IC50 (DYRK1A) was 420 nM, the IC50 ([2]; Homo sapiens) was under 30 nM and the “activity compared with enantiomer on the four kinases assayed” value (the four kinases assayed) was “more active than the derivative 31”.

Compound CC[C@H](CO)Nc1nc(NCc2ccc(-c3ccccc3)cc2)n2ncc(C(C)C)c2n1 [Compound 1, (R)-2-(1-hydroxybut-2-ylamino)-8-isopropyl-4-(4-phenylbenzylamino)pyrazolo[1,5-a]-1,3,5-triazine] has an IC50 (CDK9/cyclin T) of 93 nM, an IC50 (CDK1/cyclin B) of 180 nM and an IC50 (GSK-3α/β) of over 10000 nM. It also gave an IC50 (CDK5/p25) of 180 nM, an IC50 (CK1δ/ε) of 210 nM and an IC50 ([1]; Homo sapiens) of 189 nM. The IC50 (DYRK1A) was 2200 nM, the IC50 (CDK2/cyclin A) was 220 nM and the IC50 ([2]; Homo sapiens) was 430 nM.
